Legend:
retina = details: literature reports; cited from earlier work
RPE-J cells = assay: Assay to identify retinal toxic agents: integrin marker fluorescence in RPE-J cells, confocal microscopy; assay type: cell-based, rat; details: 50 nM integrin marker, one hour
Excerpt: For each figure, the photomicrograph on the left is made using two excitation wavelengths—488 nm (argon laser) for the integrin marker peptide and 633 nm (HeNe laser) for TOTO®-3 iodide. The integrin peptide marker fluoresces at 520 nm and TOTO®-3 iodide fluoresces at 660 nm. The photomicrograph on the right is of the identical cells as those in the left micrograph, but under 488 nm excitation alone.
RPE-J cells were plate cultured in high glucose DMEM medium (cat. no. 10313021, Invitrogen, Carlsbad, Calif.) containing 4% fetal calf serum (cat. no. 12319018, Invitrogen) at 33° C. under 5-10% CO2 atmosphere. When confluence of about 80% was reached (after about seven days), the medium was removed from the culture dish and the cells on the bottoms were washed with 0.25% trypsin-EDTA (cat. no. 25200056, Invitrogen) for three and one-half to five minutes. Following trypsinization the cells were centrifuged at 500-600 RPM for five minutes and resuspended in high glucose DMEM medium containing 4% fetal calf serum. The cells were plated in a four-chamber slide (1.7 cm^2 per chamber) at 50,000 cells per chamber. When confluence of about 80% was reached, the cells were gently wash the cells in warm phosphate buffered saline. […] Fluorescence was detected at 520 nm for the integrin marker peptide and at 660 nm for TOTO®-3 iodide.

## CN(C)CCCN1c2ccccc2Sc2ccc(Cl)cc21 [chlorpromazine]
retina
  damage to the retina reported as a result of exposure: retinopathy

## CCN(CC)CCCC(C)Nc1ccnc2cc(Cl)ccc12 (stereo not shown) [cloroquine]
retina
  damage to the retina reported as a result of exposure: retinopathy

## CC/C(=C(\c1ccccc1)c1ccc(OCCN(C)C)cc1)c1ccccc1 [tamoxifen]
RPE-J cells; 1 μM tamoxifen, 488 nm excitation (FIG. 3)
  visibility of integrin peptide marker fluorescence: clearly visible
RPE-J cells; 25 μM tamoxifen, 488 nm excitation (FIG. 4)
  visibility of integrin peptide marker fluorescence: highly visible
